Measured values published in US8603818B1, “TGF-beta receptor inhibitors to enhance direct reprogramming” (The General Hospital Corporation, priority 2008, dated 2013).
Where two headings read alike, the source gives them in different places.

Columns and labels:
[1] = system: four-factor infected MEFs; test: iPSC induction in four-factor infected MEFs (dox-inducible lentiviruses); type: cell-based, mice; conditions: for efficiency of iPSC formation / iPSC colonies per well: 1 ng/mL ligand during dox induction, dox 12d, counts day 16
Method: 2A. Alkaline phosphatase stain for primary iPSC colonies, treated with or without the Alk5 inhibitor (1 μM) during dox induction. MEFs were infected with four factors and colonies were stained on day 12 (8d+dox/4d−dox).
2B. Kinetics of reprogramming in MEFs infected with four factors.
2D. Dose-response curve for the Alk5 inhibitor in MEFs induced with four factors.
2E Effect of TGF-β ligands in reprogramming, using four-factor infected MEFs (dox for 12d; counts on day 16 based on Oct4 immunostaining). TGF-β concentrations: low, 1 ng/mL; medium, 2.5 ng/mL; high, 5 ng/mL.
2F. Timing of Alk5 inhibitor action. The Alk5 inhibitor (1 μM) was applied in 4-day time intervals. Control=no inhibitor, Full-time=inhibitor added days 1-16.
2G. […] Inhibitor (1 μM) was applied for either 3 days before (−3 to 0d) or during the first 3 days of dox induction (0 to +3d), or both (−3d to +3d). Control=no inhibitor.
To induce reprogramming, MEFs were infected with a reverse tetracycline transactivator (rtTA) transgene with doxycycline-inducible lentiviruses encoding the four reprogramming factors as previously described (Stadtfeld, M., et al., (2008) Cell Stem Cell 2, 230-240).
It was next sought to establish a dose-response curve for the Alk5 inhibitor. Using four-factor infected MEFs, concentrations of the Alk5 inhibitor were tested over a 1000-fold range, from 4 nM to 4 μM. […] To verify that manipulation of TGF-β signaling affects reprogramming, it was investigated whether pathway activation would inhibit iPSC formation. Using four-factor infected MEFs, increasing concentrations of TGF-β1 or TGF-β2 were applied during the time of dox induction.
To gain further insight into the mode of action of the Alk5 inhibitor, the temporal window during which the inhibitor elicited its strongest effect was examined. In four-factor infected MEFs, the inhibitor was applied in 4-day intervals from days 0-16 of reprogramming. […] To test this, the inhibitor was applied in 3-day time intervals: before dox administration (days −3 to 0) to test for a priming effect, during the first 3 days of reprogramming (days 0 to +3) as a control for the efficiency increase, during both intervals (days−3 to +3) to test for a synergistic effect, and a no-inhibitor control as a baseline measure (FIG. 1G).

[2] = system: Sox2-GFP fibroblasts
Source text: 1A. Effect of Alk5 inhibitor treatment on the number of Sox2-GFP+iPS colonies
Fibroblasts cultures were established from mice expressing green-fluorescent protein (GFP) from the genomic locus of the pluripotency gene Sox2. Sox2-GFP fibroblasts were then infected with viruses expressing the reprogramming factors c-Myc, Klf4, Oct4 and Sox2 in the presence and absence of a chemical inhibitor highly specific for the TGF-beta receptor Alk5 (ALK5 inhibitor H). GFP+colonies with embryonic stem (ES) cell morphology were scored 20 days after infection.

[3] = system: secondary STEMCCA MEFs; test: Dose-response of iPSC induction in secondary STEMCCA MEFs; type: cell-based, mice
Source text: 3B. Dose-response curve for the Alk5 inhibitor in secondary STEMCCA MEFs.
Secondary STEMCCA MEFs were used to establish another dose-response curve for the Alk5 inhibitor.

[4] = system: MEFs infected with OSK or OSMK; conditions: inhibitor 1 μM
Source text: 7A. […] Cells were counted at each timepoint noted, and values represent the fractional change in cell number: (fraction of starting cell number at timepoint b−fraction of starting cell number at timepoint a)/time between b and a.
In support of this, it has been shown that activation of TGF-β signaling can promote an epithelial-to-mesenchymal transition (Valcourt, U., et al., (2005) Mol Biol Cell 16, 1987-2002); fibroblast reprogramming involves a mesenchymal-to-epithelial conversion, which may be enhanced by inhibition of the TGF-β signaling pathway.

[5] = system: Secondary cells carrying the polycistronic STEMCCA construct; conditions: dox 2 days; inhibitor 1 μM
Method: 7B. Annexin V and propidium iodide (PI) staining to quantify apoptosis during iPSC induction. […] Annexin V-positive and PI-negative cells represent the fraction of living cells in the process of apoptosis.
Annexin V and propidium iodide staining was done using the Annexin V-FITC kit (BD Pharmingen, 556547) according to manufacturer directions. Cells were analyzed by flow cytometry on a FACSCalibur (BD).

[6] = system: Sox2, cMyc, Nanog expression in infected MEFs
Method: MEFs were infected with various factor combinations, then treated with dox for three days in the presence or absence of […] Alk5 inhibitor (1 μM). qPCR analysis was done using primers that specifically detect endogenous Sox2 or cMyc, as well as total Nanog. Experiments were done with both biological and technical triplicates, and a Student's T-test (paired, two-tailed) was used to assess statistical significance.
RNA was extracted by using a Qiagen RNeasy kit (74104), then converted to cDNA with the Superscript III First-Strand synthesis system (Invitrogen) using oligo-dT primers. qRT-PCRs were carried out using Brilliant II SYBR Green mix (Stratagene) and run on a Stratagene MXPro400. Reactions were carried out in duplicate with -RT controls, and data were analyzed using the delta-delta Ct method.

[7] = system: human fibroblast; conditions: data not shown
[8] = system: embryonic stem cells+MEFs; test: Reprogramming by cell fusion; conditions: data not shown
[9] = system: secondary MEF lines; conditions: inhibitor 2 μM, colonies day 16
Method: Kinetics of reprogramming in two secondary MEF lines. Dox was applied for either 4, 6, 8, or 10 days, with or without the Alk5 inhibitor (2 μM). Colonies were quantified on day 16 based on morphology and dox independence.
To this end, we employed a “secondary system” consisting of MEFs isolated from iPSC-derived chimeras.
In two different secondary MEF lines, the effect of Alk5 inhibition on both the efficiency and kinetics of reprogramming was tested. In this experiment, dox was applied for 4, 6, 8, or 10 days, either in the presence or absence of the Alk5 inhibitor, then quantified iPSC colony number on day 16.

[10] = system: primary MEFs; test: Replacement of reprogramming factors in primary MEFs infected with factor combinations (OSK, OMK, OK)
Method: Replacement of the role of cMyc with the Alk5 inhibitor (1 μM). MEFs were infected with either three (OSK) or four (OSMK) factors. Dox was withdrawn on day 8 and colonies were quantified on day 12 based on morphology and dox independence.
Replacement of the role of Sox2 with the Alk5 inhibitor (1 μM). MEFs were infected with three (OMK) or two (OK) factors and induced with dox for 16 days, then split on day 18 into media without dox. Image depicts alkaline phosphatase stain of passage 1 cultures.
Experiments were designed to investigate whether the Alk5 inhibitor could function to replace exogenous expression of any of the reprogramming factors. To this end, primary MEFs were infected with different combinations of the four factors in the presence or absence of inhibitor (FIG. 4) and then scored for iPSC formation.
For all of the other replacement conditions, dox was withdrawn on day 16, which would provide sufficient time for reprogramming. […] Nonetheless, colonies were picked from both conditions and tested for their potential to form dox-independent lines.

[11] = 2.5 ng/mL ligand during dox induction
[12] = 5 ng/mL ligand during dox induction

TGF-β1: TGF-β ligand obtained from Peprotech
efficiency of iPSC formation [1]: ~0.0013% | iPSC colonies per well [1]: one | iPSC formation [1, 11]: undetectable | iPSC formation [1, 12]: undetectable

Cc1cccc(-c2n[nH]cc2-c2ccc3ncccc3n2)n1 [Alk5 inhibitor, 2-(3-(6-Methylpyridin-2-yl)-1H-pyrazol-4-yl)-1,5 napththyridine]
fold more GFP+ colonies with ES cell morphology ([2]; four factors, scored 20 days after infection, versus absence of inhibitor): 5-10 fold | onset of GFP expression in colonies ([2]; versus colonies formed in the absence of the chemical): earlier | effect of inhibitor use during reprogramming on the resulting iPSCs (pluripotency markers, teratoma) ([1]; 4-day iPSCs): no adverse effect | frequency of iPSC colonies ([1]; four days of dox, inhibitor 2 μM, counted day 16): 0.0013% | enhancement in number of iPSC colonies ([1]; highest dose tested (range 4 nM to 4 μM), dox and inhibitor 8 days, Oct4 immunostaining day 12): 30 fold | reprogramming efficiency by timing of inhibitor ([1]; inhibitor 1 μM applied after dox withdrawal (day 12)): no effect | reprogramming efficiency by timing of inhibitor ([1]; inhibitor 1 μM applied during 5-8 day interval): strong enhancement | reprogramming efficiency by timing of inhibitor ([1]; inhibitor 1 μM applied during first four days, dox withdrawn day 12, counts day 16): largest increase in efficiency | number of iPSC colonies (alkaline phosphatase stain) ([1]; inhibitor 1 μM during dox induction, stained day 12 (8d+dox/4d−dox)): striking increase | enhancement in efficiency ([1]; inhibitor 1 μM during first 3 days of factor expression (0 to +3d)): −5 fold | increase in efficiency ([1]; inhibitor 1 μM in −3d/+3d group): comparable to the 0 to +3d group | reprogramming efficiency, priming test ([1]; inhibitor 1 μM prior to factor expression (days 3 to 0), dox withdrawn day 8, counts day 12): slight reduction in efficiency | iPSC formation ([1]; three days of dox, inhibitor 2 μM, counted day 16): not obtained | increase in efficiency at maximum ([3]; at 0.5 μM): ~60 fold | efficiency at higher doses ([3]; doses above the maximum): began to decline | concentration giving maximum efficiency ([3]; dox and inhibitor 8 days, Oct4 immunostaining day 12): 0.5 µM | proliferation during reprogramming ([4]; around day 6): decrease in proliferation | cell number early in reprogramming ([4]; day 2): mitigated the decrease in cell number | apoptosis, Annexin V staining, inhibitor-treated versus untreated cells [5]: negligible difference | induction of cMyc ([6]; cells infected with OSK, dox three days, inhibitor 1 μM): 1.3 fold | change in expression of other genes (Sox2: OMK, OSMK; cMyc: OSMK; Nanog: OMK, OSK, OSMK) ([6]; dox three days, inhibitor 1 μM): No other genes showed a statistically significant change | induction of Sox2 or cMyc ([6]; other cells (OMK or OSMK)): no significant induction | increase in the efficiency of human fibroblast reprogramming [7]: not observed | effect on reprogramming by cell fusion [8]: negative result | increase in reprogramming ([9]; one secondary MEF line): 2 fold | increase in reprogramming ([9]; the other secondary MEF line): 30 fold | colony formation in the absence of both cMyc and Sox2 ([10]; OK + inhibitor 1 μM): could not be obtained | dox-independent colonies after passage without dox ([10]; OMK+inhibitor 1 μM): gave rise to dox-independent colonies | colony formation in cMyc replacement condition ([10]; OSK+inhibitor, day 8): colonies were observed | picked colonies forming dox-independent iPSC lines ([10]; Sox2 replacement condition (OMK), inhibitor-treated culture): 3/22 | colonies morphologically identical to iPSCs ([10]; Sox2 replacement condition (OMK), inhibitor-treated culture, dox 16 days): 50 colonies | efficiency of OSK+inhibitor relative to four factors alone (OSK+M) ([10]; inhibitor 1 μM, dox withdrawn day 8, colonies day 12): 2.5 fold

B1: TGF-β2: TGF-β ligand obtained from Peprotech (protein, UniProt P61812 303-414, looked up)
Transforming growth factor …: ALDAAYCFRNVQDNCCLRPLYIDFKRDLGWKWIHEPKGYNANFCAGACPYLWSSDTQHSRVLSLYNTINPEASASPCCVSQDLEPLTILYYIGKTPKIEQLSNMIVKSCKCS
efficiency of iPSC formation [1]: ~0.0013% | iPSC colonies per well [1]: one | iPSC formation [1, 11]: undetectable | iPSC formation [1, 12]: undetectable
